Data: patent publication US10375956B2, “Herbicidally active 2-(substituted-phenyl)-cyclopentane-1,3-dione compounds and derivatives thereof” (Syngenta Limited, priority 2013, dated 2019)

Columns and labels:
Type in all cases: in vivo
[1] = test system: Amaranthus retroflexus (AMARE); assay: Test 1 glasshouse assay, pre-emergence herbicidal activity; details: 312 h, visual evaluation after 13 days, read-out: Percentage phytotoxicity AMARE
Method: (§1) Seeds of a variety of test species are sown in standard soil in pots. After cultivation for one day (pre-emergence) or after 8 days cultivation (post-emergence) under controlled conditions in a glasshouse (at 24/16° C., day/night; 14 hours light; 65% humidity), the plants are sprayed with an aqueous spray solution derived from the formulation of the “technical” (i.e. unformulated) active ingredient in acetone/water (50:50) solution containing 0.5% Tween 20 (polyoxyethylene sorbitan monolaurate, CAS Registry Number 9005-64-5). The test plants are then grown on under controlled conditions in a glasshouse (at 24/16° C., day/night; 14 hours light; 65% humidity) and watered twice daily. After 13 days for pre- or post-emergence, the test is evaluated visually, and an assessed percentage phytotoxicity score is given for each herbicidal application on each plant species (where 100%=total damage to plant; 0%=no damage to plant).
(§2) Test plants include the following: Abutilon theophrasti (ABUTH), Amaranthus retroflexus (AMARE): these are dicotyledonous (broadleaved) weeds. Setaria faberi (SETFA), Alopecurus myosuroides (ALOMY), Echinochloa crus-galli (ECHCG): these are grassy monocotyledonous weeds. Also: Zea mays (ZEAMX, corn/maize), which can be a grassy weed (“volunteer” corn) in some circumstances.

[2] = test system: Alopecurus myosuroides (ALOMY); assay: as above; details: 312 h, visual evaluation after 13 days, read-out: Percentage phytotoxicity ALOMY
Method: as §1, §2

[3] = test system: Abutilon theophrasti (ABUTH); assay: as above; details: 312 h, visual evaluation after 13 days, read-out: Percentage phytotoxicity ABUTH
Method: as §1, §2

[4] = test system: Setaria faberi (SETFA); assay: as above; details: 312 h, visual evaluation after 13 days, read-out: Percentage phytotoxicity SETFA
Method: as §1, §2

[5] = test system: Zea mays (ZEAMX, corn/maize); assay: as above; details: 312 h, visual evaluation after 13 days, read-out: Percentage phytotoxicity ZEAMX
Method: as §1, §2

[6] = test system: Echinochloa crus-galli (ECHCG); assay: as above; details: 312 h, visual evaluation after 13 days, read-out: Percentage phytotoxicity ECHCG
Method: as §1, §2

[7] = test system: Alopecurus myosuroides (ALOMY); assay: Test 1 glasshouse assay, post-emergence herbicidal activity; details: 312 h, after 13 days, read-out: Percentage phytotoxicity ALOMY
Method: as §1
(§3) Test plants include the following: Abutilon theophrasti (ABUTH) and Amaranthus retroflexus (AMARE); these are all dicotyledonous (broadleaved) weeds. Setaria faberi (SETFA), Alopecurus myosuroides (ALOMY), and Echinochloa crus-galli (ECHCG); these are all grassy monocotyledonous weeds. Also: Zea mays (ZEAMX, corn/maize), which can be a grassy weed (“volunteer” corn) in some circumstances.
(§4) Lolium perenne (LOLPE), Alopecurus myosuroides (ALOMY), Echinochloa crus-galli (ECHCG), and Avena fatua (AVEFA); these are all grassy monocotyledonous weeds. Cool climate crop plant: Triticum aestivum (TRZAW, winter wheat).

[8] = test system: Echinochloa crus-galli (ECHCG); assay: as above; details: 312 h, after 13 days, read-out: Percentage phytotoxicity ECHCG
Method: as §1, §3, §4

[9] = test system: Amaranthus retroflexus (AMARE); assay: as above; details: 312 h, post-emergence (Example 1B Table 1), after 13 days, read-out: Percentage phytotoxicity AMARE
Method: as §1, §3

[10] = test system: Abutilon theophrasti (ABUTH); assay: as above; details: 312 h, post-emergence (Example 1B Table 1), after 13 days, read-out: Percentage phytotoxicity ABUTH
Method: as §1, §3

[11] = test system: Setaria faberi (SETFA); assay: as above; details: 312 h, post-emergence (Example 1B Table 1), after 13 days, read-out: Percentage phytotoxicity SETFA
Method: as §1, §3

[12] = test system: Zea mays (ZEAMX, corn/maize); assay: as above; details: 312 h, post-emergence (Example 1B Table 1), after 13 days, read-out: Percentage phytotoxicity ZEAMX
Method: as §1, §3

[13] = test system: Lolium perenne (LOLPE); assay: as above; details: 312 h, post-emergence (Example 1B Table 2), after 13 days, read-out: Percentage phytotoxicity LOLPE
Method: as §1, §4

[14] = test system: Triticum aestivum (TRZAW, winter wheat); assay: as above; details: 312 h, post-emergence (Example 1B Table 2), after 13 days, crop plant, read-out: Percentage phytotoxicity TRZAW
Method: as §1, §4

[15] = test system: Avena fatua (AVEFA); assay: as above; details: 312 h, post-emergence (Example 1B Table 2), after 13 days, read-out: Percentage phytotoxicity AVEFA
Method: as §1, §4

[16] = post-emergence (Example 1B Table 1)
[17] = post-emergence (Example 1B Table 2)
[18] = post-emergence (Example 1B Table 1), 8 g/ha

Structure (SMILES) | pest or weed control at 250 g/ha [1] | pest or weed control at 250 g/ha [2] | pest or weed control at 250 g/ha [3] | pest or weed control at 250 g/ha [6] | pest or weed control at 250 g/ha [7, 16] | pest or weed control at 250 g/ha [8, 16] | pest or weed control at 250 g/ha [9] | pest or weed control at 250 g/ha [10] | pest or weed control at 250 g/ha [11] | pest or weed control at 250 g/ha [12] | pest or weed control at 62.5 g/ha [7, 17] | pest or weed control at 250 g/ha [7, 17] | pest or weed control at 62.5 g/ha [8, 17] | pest or weed control at 250 g/ha [8, 17] | pest or weed control at 62.5 g/ha [13] | pest or weed control at 250 g/ha [13] | plant injury at 62.5 g/ha [14] | plant injury at 250 g/ha [14] | pest or weed control at 62.5 g/ha [15] | pest or weed control at 250 g/ha [15] | also measured
C#CCC1CC(=O)C(c2c(F)cc(-c3ccc(F)cc3)cc2Cl)C1=O (centres unmarked) [Compound A4] | 80% | 90% | 0% | 100% | 100% | 100% | 80% | 80% | 100% | 100% |  |  |  |  |  |  |  |  |  |  | pest or weed control at 250 g/ha [4]: 100%; pest or weed control at 250 g/ha [5]: 100%; pest or weed control at 30 g/ha [7, 16]: 70%; pest or weed control at 30 g/ha [8, 16]: 90%; pest or weed control at 30 g/ha [9]: 60%; pest or weed control at 30 g/ha [10]: 40%; pest or weed control at 30 g/ha [11]: 100%; pest or weed control at 30 g/ha [12]: 100%
C#CCC1CC(=O)C(c2c(C)cc(-n3cc(Cl)cn3)cc2C)C1=O (centres unmarked) [Compound A9] | 70% | 70% | 40% | 100% | 100% | 100% | 80% | 80% | 100% | 100% |  |  |  |  |  |  |  |  |  |  | pest or weed control at 250 g/ha [4]: 100%; pest or weed control at 250 g/ha [5]: 80%
C#CCC1CC(=O)C(c2cc(-c3ccc(Cl)cc3)ccc2C)C1=O (centres unmarked) [Compound A16] | 40% | 90% | 40% | 90% | 90% | 100% | 60% | 40% | 90% | 60% |  |  |  |  |  |  |  |  |  |  | pest or weed control at 250 g/ha [4]: 90%; pest or weed control at 250 g/ha [5]: 80%; pest or weed control at 30 g/ha [7, 16]: 70%; pest or weed control at 30 g/ha [8, 16]: 40%; pest or weed control at 30 g/ha [9]: 0%; pest or weed control at 30 g/ha [10]: 40%; pest or weed control at 30 g/ha [11]: 80%; pest or weed control at 30 g/ha [12]: 80%
CC#CCC1CC(=O)C(c2c(C)cc(C)cc2C)C1=O (centres unmarked) [Compound A24] |  | 100% |  | 100% |  |  |  |  |  |  | 60% | 80% | 70% | 80% | 70% | 80% | 0% | 0% | 60% | 50% | 
C#CCC1CC(=O)C(c2c(Br)cc(C)cc2Br)C1=O (centres unmarked) [Compound A26] |  | 30% |  | 80% |  |  |  |  |  |  |  | 60% |  | 100% |  | 100% |  | 10% |  | 70% | 
C#CCC1CC(=O)C(c2c(C)cc(C#C)cc2C)C1=O (centres unmarked) [Compound A27] |  | 100% |  | 100% |  |  |  |  |  |  | 90% | 100% | 90% | 100% | 80% | 100% | 80% | 90% | 90% | 100% | 
C#Cc1cc(C)c(C2C(=O)CC(CC#CC)C2=O)c(C)c1 (centres unmarked) [Compound A28] |  | 90% |  | 100% |  |  |  |  |  |  | 70% | 100% | 90% | 100% | 80% | 90% | 30% | 80% | 80% | 90% | 
C#CCC1CC(=O)C(c2c(Cl)cccc2Cl)C1=O (centres unmarked) [Compound A29] |  | 70% |  | 90% |  |  |  |  |  |  | 60% | 80% | 90% | 100% | 60% | 80% | 60% | 80% | 0% | 60% | 
C#CCC1CC(=O)C(c2ccc(-c3ccc(Cl)cc3)cc2C)C1=O (centres unmarked) [Compound A43] |  |  |  |  | 20% | 20% | 0% |  | 70% |  |  |  |  |  |  |  |  |  |  |  | 
C#CCC1C(=O)C(c2cc(-c3ccc(Cl)cc3)ccc2C)C(=O)C1CC#C (centres unmarked) [Compound A44] |  |  |  |  | 0% | 0% | 0% | 10% | 0% | 20% |  |  |  |  |  |  |  |  |  |  | pest or weed control at 8 g/ha [7, 18]: 0%; pest or weed control at 8 g/ha [8, 18]: 0%; pest or weed control at 8 g/ha ([9]; 8 g/ha): 0%; pest or weed control at 8 g/ha ([10]; 8 g/ha): 0%; pest or weed control at 8 g/ha ([11]; 8 g/ha): 0%; pest or weed control at 8 g/ha ([12]; 8 g/ha): 30%
